# Measured values as given in ChEMBL document CHEMBL1142640, “New natural product isolation and comparison of the secondary metabolite content of three distinct samples of the sea hare Aplysia dactylomela from tenerife” (J Nat Prod, 2000).
# The source made the active and inactive calls. No cut-off for these calls is given here.
# Tests used:
# [1] = test system: Mycobacterium avium; assay: Antitubercular activity against Mycobacterium avium; assay type: functional
# [2] = test system: KB; assay: Cytotoxicity against human KB cells; assay type: functional, cell-based
# [3] = test system: Priestia megaterium; assay: Antibacterial activity against Bacillus megaterium at 50 ug/disk; assay type: functional
# [4] = test system: Escherichia coli; assay: Antibacterial activity against Escherichia coli at 50 ug/disk; assay type: functional
# [5] = target: Tyrosine-protein kinase Lck (Homo sapiens) (UniProt P06239); assay: Inhibition of p56lck
# Tyrosine-protein kinase Lck (Homo sapiens), sequence (P06239 2-509 limits assumed): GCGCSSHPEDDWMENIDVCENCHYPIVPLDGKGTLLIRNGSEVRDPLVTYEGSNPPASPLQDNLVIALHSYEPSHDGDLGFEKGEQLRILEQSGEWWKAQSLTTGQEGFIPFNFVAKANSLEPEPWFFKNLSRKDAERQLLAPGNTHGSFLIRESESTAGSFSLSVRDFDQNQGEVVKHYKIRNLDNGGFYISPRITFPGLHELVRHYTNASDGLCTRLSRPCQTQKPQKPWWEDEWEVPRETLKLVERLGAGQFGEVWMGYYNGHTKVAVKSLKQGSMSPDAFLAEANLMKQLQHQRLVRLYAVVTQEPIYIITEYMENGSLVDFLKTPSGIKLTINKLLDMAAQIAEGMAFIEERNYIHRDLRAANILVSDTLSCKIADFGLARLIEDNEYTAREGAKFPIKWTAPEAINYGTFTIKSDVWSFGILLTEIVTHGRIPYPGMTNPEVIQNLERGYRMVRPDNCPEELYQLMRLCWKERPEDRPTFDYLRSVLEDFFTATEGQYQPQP
# [6] = test system: [Chlorella] fusca; assay: Antialgal activity against Chlorella fusca; assay type: functional, Scenedesmus fuscus
# [7] = test system: Caenorhabditis elegans; assay: Nematicidal activity against Caenorhabditis elegans; assay type: functional, organism-based
# [8] = test system: Mycobacterium tuberculosis; assay: Antitubercular activity against Mycobacterium tuberculosis; assay type: functional
# [9] = test system: Microbotryum violaceum; assay: Antifungal activity against Microbotryum violaceae assessed as no colonies of test organism growing within inhibition zone at 50 ug/disk; assay type: functional; conditions: read-out: IZ
# [10] = target: Human immunodeficiency virus type 1 reverse transcriptase (Human immunodeficiency virus 1) (UniProt Q72547); assay: Inhibition of HIV1 reverse transcriptase
# [11] = Toxicity in Artemia salina at 0.5 mg/mL after 48 hrs; assay type: organism-based; conditions: in vivo, read-out: Activity
# [12] = test system: ZR-75-1; assay: Cytotoxicity against human ZR-75-1 cells; assay type: functional, cell-based
# [13] = test system: Lu1; assay: Cytotoxicity against human Lu1 cells; assay type: functional, cell-based
# [14] = test system: [Chlorella] fusca; assay: Antialgal activity against Chlorella fusca assessed as no colonies of test organism growing within inhibition zone at 50 ug/disk; assay type: functional; conditions: Scenedesmus fuscus; read-out: IZ
structure (smiles),measurement,setting,value
C[C@]1(/C=C/Cl)C[C@](Cl)(CBr)[C@@H](Br)C[C@H]1Cl,MIC,[1],34 µg/mL
same,IC50,[2],13.3 µg/mL
same,Activity,[3],inactive
same,Activity,[4],inactive
same,Activity,[5],inactive
same,MIC,[6],7 µg
same,Activity,[7],Active
same,MIC,[8],32 µg/mL
same,zone of inhibition at 50 µg/disc,[9],2 mm
same,Activity,[10],inactive
same,"mortality at 48 h, 0.5 mg/mL",[11],100%
same,IC50,[12],7.8 µg/mL
same,IC50,[13],12.9 µg/mL
same,zone of inhibition at 50 µg/disc,[14],16 mm
